Measurements published in patent US20250171438A1 (Agios Pharmaceuticals, Inc., priority 2022, published 2025).

Target: T1, human PAH with the R408W mutation (Homo sapiens, UniProt P00439, R408W)
T1 construct: expressed in transfected cells
T1 sequence (P00439 1-452 R408W): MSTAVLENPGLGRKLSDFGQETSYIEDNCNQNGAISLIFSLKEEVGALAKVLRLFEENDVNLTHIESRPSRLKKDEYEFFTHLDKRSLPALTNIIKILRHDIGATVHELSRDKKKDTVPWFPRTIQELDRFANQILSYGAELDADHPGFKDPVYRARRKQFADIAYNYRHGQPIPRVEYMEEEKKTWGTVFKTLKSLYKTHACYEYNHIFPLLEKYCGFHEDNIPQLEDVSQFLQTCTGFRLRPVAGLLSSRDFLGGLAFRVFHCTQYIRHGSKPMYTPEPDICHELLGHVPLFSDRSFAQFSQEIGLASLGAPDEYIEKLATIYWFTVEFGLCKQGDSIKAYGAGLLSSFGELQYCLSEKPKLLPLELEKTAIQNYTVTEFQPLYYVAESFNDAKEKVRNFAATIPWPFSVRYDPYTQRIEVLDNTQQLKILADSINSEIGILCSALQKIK
Assay: Cell Based Phenylalanine Flux Assay
Conditions: A375 cells expressing human R408W PAH; 24 hrs compound incubation; 13C-Tyrosine by LC-MS; average where tested multiple times; read-out: AC50

Row | SMILES | AC50 [nM]
1 | CC(C)(O)c1ncc(C(=O)N2CCc3[nH]cnc3[C@@H]2c2nc3ccccc3s2)o1 [Example 1447, (R)-(4-(benzo[d]thiazol-2-yl)-6,7-dihydro-1H-imidazo[4,5-c]pyridin-5(4H)-yl)(2-(2-hydroxypropan-2-yl)oxazol-5-yl)methanone] | 1000 to 5000
2 | CC(C)(O)c1ncc(C(=O)N2CCc3[nH]cnc3[C@H]2c2nc3ccccc3s2)o1 [Example 1448] | 500 to 1000
3 | Cc1cnc(CC(=O)N2CCc3[nH]cnc3[C@H]2c2nc3ccccc3s2)s1 [Example 1457] | 1000 to 5000
4 | Cc1cnc(CC(=O)N2CCc3[nH]cnc3[C@@H]2c2nc3ccccc3s2)s1 [Example 1458, (R)-1-(4-(benzo[d]thiazol-2-yl)-6,7-dihydro-1H-imidazo[4,5-c]pyridin-5(4H)-yl)-2-(5-methylthiazol-2-yl)ethanone] | 1000 to 5000
5 | O=C(Cc1ncc(C2CC2)s1)N1CCc2[nH]cnc2[C@H]1c1nc2ccccc2s1 [Example 1459] | 500 to 1000
6 | O=C(Cc1ncc(C2CC2)s1)N1CCc2[nH]cnc2[C@@H]1c1nc2ccccc2s1 [Example 1460, (R)-1-(4-(benzo[d]thiazol-2-yl)-6,7-dihydro-1H-imidazo[4,5-c]pyridin-5(4H)-yl)-2-(5-cyclopropylthiazol-2-yl)ethanone] | 1000 to 5000
7 | CC(C)(F)c1ncc(C(=O)N2CCc3[nH]cnc3[C@H]2c2nc3ccccc3s2)s1 [Example 1463] | < 500
8 | CC(C)(F)c1ncc(C(=O)N2CCc3[nH]cnc3[C@@H]2c2nc3ccccc3s2)s1 [Example 1464, (R)-(4-(benzo[d]thiazol-2-yl)-6,7-dihydro-1H-imidazo[4,5-c]pyridin-5(4H)-yl)(2-(2-fluoropropan-2-yl)thiazol-5-yl)methanone] | 1000 to 5000

Results, then the compound that gave them:

Row | AC50 [nM] | SMILES
9 | > 5000 | O=C(c1ocnc1-c1ccccn1)N1CCc2[nH]cnc2[C@@H]1c1nc2ccccc2s1 [Example 1449, (R)-(4-(benzo[d]thiazol-2-yl)-6,7-dihydro-1H-imidazo[4,5-c]pyridin-5(4H)-yl)(4-(pyridin-2-yl)oxazol-5-yl)methanone]
10 | 500 to 1000 | O=C(c1ocnc1-c1ccccn1)N1CCc2[nH]cnc2[C@H]1c1nc2ccccc2s1 [Example 1450]
11 | < 500 | COCCc1ccc2c(C(=O)N3CCc4[nH]cnc4[C@H]3c3nc4ccccc4s3)cnn2c1 [Example 1451]
12 | > 5000 | COCCc1ccc2c(C(=O)N3CCc4[nH]cnc4[C@@H]3c3nc4ccccc4s3)cnn2c1 [Example 1452, (R)-(4-(benzo[d]thiazol-2-yl)-6,7-dihydro-1H-imidazo[4,5-c]pyridin-5(4H)-yl)(6-(2-methoxyethyl)pyrazolo[1,5-a]pyridin-3-yl)methanone]
13 | < 500 | CN(C)CCc1ccc2c(C(=O)N3CCc4[nH]cnc4[C@H]3c3nc4ccccc4s3)cnn2c1 [Example 1453]
14 | > 5000 | CN(C)CCc1ccc2c(C(=O)N3CCc4[nH]cnc4[C@@H]3c3nc4ccccc4s3)cnn2c1 [Example 1454, (R)-(4-(benzo[d]thiazol-2-yl)-6,7-dihydro-1H-imidazo[4,5-c]pyridin-5(4H)-yl)(6-(2-(dimethylamino)ethyl)pyrazolo[1,5-a]pyridin-3-yl)methanone]
15 | < 500 | CC(C)(F)c1ncc(C(=O)N2CCc3[nH]cnc3[C@H]2c2nc3ccccc3s2)o1 [Example 1455]
16 | 1000 to 5000 | CC(C)(F)c1ncc(C(=O)N2CCc3[nH]cnc3[C@@H]2c2nc3ccccc3s2)o1 [Example 1456, (R)-(4-(benzo[d]thiazol-2-yl)-6,7-dihydro-1H-imidazo[4,5-c]pyridin-5(4H)-yl)(2-(2-fluoropropan-2-yl)oxazol-5-yl)methanone]
17 | 1000 to 5000 | Cn1cc(-c2nnc(C(=O)N3CCc4[nH]cnc4[C@@H]3c3nc4ccccc4s3)o2)cn1 [Example 1461, (R)-(4-(benzo[d]thiazol-2-yl)-6,7-dihydro-1H-imidazo[4,5-c]pyridin-5(4H)-yl)(5-(1-methyl-1H-pyrazol-4-yl)-1,3,4-oxadiazol-2-yl)methanone]
18 | 1000 to 5000 | Cn1cc(-c2nnc(C(=O)N3CCc4[nH]cnc4[C@H]3c3nc4ccccc4s3)o2)cn1 [Example 1462]
